Read-outs that look alike come from different tables or passages of the source.
How the values were obtained:
[1] = Polymer biodistribution (IVIS imaging) and liver hepatocyte localization (histology); assay type: in vivo; details: mice
Description: Mice were dosed SC with rhodamine-labeled pSVCTQ at the dose of equivalent 25 mg/kg TQ, which were then euthanized at 8 hours after injection. Selected organs, including liver, kidneys, lungs, spleen, heart, and brain, were harvested and washed with PBS before imaging studies (IVIS) using fluorescent mode at (excitation/emission: 530/585 nm), Caliper Xenogen IVIS (PerkinElmer, Hopkinton, MA). The radiant efficiency emitted from the organs in each mouse was subsequently quantified using Xenogen Living Image software. Mice treated with PBS served as controls (fig. S12). Three mice were included in each group.
Rhodamine-labeled pSVCTQ was formulated in PBS and SC administered in mice at a dose of 25 mg/kg TQ equivalent. Mice receiving PBS served as controls. The liver was harvested at 8 hours after injection and immediately fixed in 10% neutral buffered formalin at 4°C for 4 hours. After washing three times in cold PBS, the liver tissue was sunk in 15% sucrose solution for 24 hours and then in 30% sucrose solution for 24 hours at 4°C. The sucrose solution was prepared in DPBS (1×, with Mg^2+ and Ca^2+). The liver tissue was then blotted with paper tissue and embedded in an optimal cutting temperature compound. The sample was frozen in prechilled isopentane in liquid nitrogen and stored at −80°C. The 5-μm-thick sections were prepared using CryoStat at −20°C. Alexa Fluor 488 phalloidin was diluted 1:50 in PBS and used to counterstain the sections for 1 hour at room temperature (RT) to visualize cell outlines. The cell nuclei were counterstained with DAPI (blue) for 5 min at RT. Sections were imaged using an epi-fluorescent microscope (Nikon Eclipse 90i and Hamamatsu C10600 Camera at 20× magnification) using GFP-B HYQ (excitation/emission: 450/550 nm) Texas red HYQ (excitation/emission: 535/580 nm) and ultraviolet illumination (excitation/emission: 350/470 nm).

[2] = set-up: method as in PMID 28749773; details: G6PD-deficient cohort, cited from earlier work
[3] = tested on: P. berghei; assay: P. berghei luciferase and blood parasitemia model of causal prophylaxis; assay type: in vivo
Description: Efficacy studies in the P. berghei mouse model of causal prophylaxis were conducted at the Walter Reed Army Institute of Research, Experimental Therapeutics Branch as previously described ([46]).
Luciferase-expressing P. berghei ANKA sporozoites were obtained from laboratory-reared female Anopheles stephens mosquitoes as previously described ([46]). Sporozoites were recovered by the method of Li et al. ([62]) and quantitated using a hemocytometer. Sporozoites isolated from the same batch of mosquitoes were inoculated into mice on the same day to control biological variability in sporozoite preparations. Each animal was inoculated IV in the tail vein with approximately 10,000 sporozoites suspended in 0.1-ml volume on day 0.
Age-matched, 40 young adult (7-week-old) female C57BL/6 albino mice were purchased from Charles River Laboratories (Frederick, MD). On arrival, animals were acclimated for 7 days in quarantine. Mice were housed and maintained at a temperature range of 64° to 79°F, 34 to 68% relative humidity, and a 12-hour light/dark cycle. Food and water were provided ad libitum. Animals were fed a standard rodent maintenance diet. All animal use, care, and handling was conducted under an IACUC-approved animal use protocol in an Association for Assessment and Accreditation for Laboratory Animal Care International (AAALACi)–accredited facility with a Public Health Services Animal Welfare Assurance and in compliance with the Animal Welfare Act and other federal statutes and regulations relating to laboratory animals.
TQ was dissolved at a stock concentration of 1 mg/ml in 25% hydroxy-β-cyclodextrin acidified to pH 5 with acetic acid and diluted in DPBS for final dosing solutions. Polymers for parenteral administration were prepared in DPBS at the final dosing concentrations. All drug concentrations were calculated per the free base molecular weights of TQ. TQ parent compounds were administered intragastrically via an intragastric feeder tube. Vehicle groups (0.1 ml of DPBS) and polymer groups were administered SC in the right flank. Free TQ, vehicle, and polymers were given as a single dose on day −1. In this model, the pSVCTQ doses studied were 5.0, 7.5, or 10 mg/kg TQ equivalent.
Whole-body IVIS imaging of bioluminescence activity from luciferase-expressing P. berghei–infected mice was performed using a PerkinElmer IVIS Spectrum. Mice were evaluated at 24, 48, and 72 hours after sporozoite inoculation to determine liver- and blood-stage malaria infection. Mice received luciferin (150 mg/kg, Gold Biotechnology, St. Louis, MO) intraperitoneally in a maximal volume of 150 μl. Three minutes after luciferin administration, the mice were anesthetized with inhaled isoflurane and positioned ventral side up in the IVIS Spectrum on a 37°C platform. The mice continued to receive isoflurane through nose cone delivery. The camera exposure times used were 1 or 5 min for the 24-, 48-, and 72-hour time points with f-stop = 1, and the large binning setting was chosen. Quantitative analysis of bioluminescence emitted from whole bodies or […] (ROI) were determined by measuring the luminescence signal intensity in photons per second using the ROI settings of the Living Image 3.0 software. The ROI, expressed in total flux of photons, was set to measure the abdominal area at the location of the liver from whole-body imaging ([62]). The data were generally found to fit a normal distribution. Means and SDs of photon measurement were calculated.
On days 5 to 31 after infection, mice were analyzed for blood-stage infections by quantitation of malaria parasites in erythrocytes by flow cytometry. Blood (3 μl) from the mouse tail was collected directly into 0.3 ml of 1% heparinized isotonic buffer (PBS saline). After addition of 1 ml of 0.04% of glutaraldehyde for fixation, the samples were incubated at 4°C for 60 min. Cells were centrifuged at 450g for 5 min. […]

[4] = tested on: G6PD-deficient huRBCs; assay: Hemotoxicity in humanized G6PD deficiency mouse model; assay type: in vivo, human RBCs engrafted in NOD/SCID mice; details: single dose day 0; pSVCTQ SC, TQ oral; A− G6PD-deficient donor
Description: (§1) Following procedures as previously published ([46]), hemotoxicity studies using huRBC engraftments were conducted in mice.
(§2) Female (8 to 9 weeks) NOD.CB17-Prkdcscid/J [nonobese diabetic severe combined immunodeficient (NOD/SCID)] mice were purchased from The Jackson Laboratory (Bar Harbor, ME). The animals were housed in a cage maintained in a specific pathogen–free animal facility and were acclimated for 1 week in the facility before initiation of experimental procedures. Sterile food and water were provided ad libitum throughout the study as previously described ([64]). All animal studies were performed under IACUC-approved protocols and adhere to the principles stated in the Guide for the Care and Use of Laboratory Animals ([100]).
(§3) Polymer solutions for SC administration were prepared in DPBS at the final dosing concentrations. All drug concentrations were calculated per the free base molecular weights of TQ. The TQ parent compound was administered intragastrically via an intragastric feeder tube. Polymers and vehicle were administered SC in the right flank. TQ, pSVCTQ, and vehicle were given as a single dose on day 0. In this model, the TQ dose studied was 10 mg/kg; pSVCTQ was tested at doses of 2.5, 5.0, or 10 mg/kg TQ equivalent.
(§4) The percentage of huRBCs at the end of this period was analyzed by flow cytometry to evaluate glycophorin A (huRBCs) and Ter119 (mouse RBCs) circulating in peripheral blood. […] The G6PD-deficient huRBC NOD/SCID mice were dosed with pSVCTQ or parent drug prepared as described above, with three to four mice per group. On days 4 and 7 following dosing, huRBC levels were assessed again by flow cytometry (glycophorin^+Ter119^−), along with the percentage of murine reticulocytes (CD71^+Ter119) as an additional marker of hemolytic toxicity. Mice were euthanized on day 7 following initiation of treatment.
(§5) Microsoft Excel and GraphPad Prism were used throughout the PK analysis to process the data, calculate pharmacokinetic parameters, and yield statistical information. A linear regression model was produced using the least squares fitting method with 1/x^2 scaling for the assay calibrators. […] For the G6PD deficiency model, data analysis was performed using GraphPad Prism (GraphPad Software). […] An F test comparing the two dose-response curves was also run. For all other work, a combination of Microsoft Excel and GraphPad Prism was used.

[5] = as above; assay type: in vivo, human RBCs engrafted in NOD/SCID mice; details: female, NOD/SCID (NOD.CB17-Prkdcscid/J), mouse, in vivo; curve fit of Fig. 4B; single dose; pSVCTQ SC, TQ oral; day 7; read-out: Dose resulting in 50% hemolysis (TD50)
Description: as §1, §2, §3, §4, §5

[6] = Tissue pharmacokinetics of released TQ and its metabolites in liver, plasma and urine (LC-MS/MS); assay type: in vivo, BALB/c mice
[7] = 8 hours after SC 25 mg/kg TQ equivalent
[8] = female, BALB/c, mouse, in vivo, po, 10 mg/kg

**Q.** With “p(GalNAc-MA-co-SVCTQ-MA-co-RheMA) [rhodamine-labeled pSVCTQ]” as the molecule, how does the “Fluorescence in lungs, heart, spleen, and brain (IVIS)” value [1, 7] read?
**A.** little fluorescence intensity

**Q.** And the “Fluorescence in the kidneys (IVIS)” value [1, 7]?
**A.** low level of fluorescence

**Q.** What about the “Liver accumulation (IVIS fluorescence)” value [1, 7] of the same molecule?
**A.** accumulate in the liver with high selectivity

**Q.** What about the “Liver penetration / hepatocyte distribution (cross-sectional histology)” value ([1]; liver 8 hours after SC 25 mg/kg TQ equivalent) of the same molecule?
**A.** present in every hepatocyte

**Q.** For COc1cc(C)c2c(Oc3cccc(C(F)(F)F)c3)c(OC)cc(NC(C)CCCN)c2n1 (stereo not shown) [TQ, tafenoquine], which “Hemolytic toxicity (decreases in hemoglobin and hematocrit)” value ([2]; 100-mg dose) is on record?
**A.** did not produce hemotoxicity

**Q.** And the “Hemolytic toxicity (decreases in hemoglobin and hematocrit)” value ([2]; 300-mg dose)?
**A.** dose-limiting

**Q.** And the Mice survived ([3]; 10 mg/kg PO, single dose day −1, 31 days, n = 5)?
**A.** 2/5

**Q.** What about the Blood parasitemia suppression ([3]; 10 mg/kg oral, single dose day −1) of the same molecule?
**A.** partial suppression of parasitemia

**Q.** What about the “IVIS signal during days 1 to 3” value ([3]; 10 mg/kg single dose day −1, pSVCTQ SC, TQ oral) of the same molecule?
**A.** completely suppressed

**Q.** What about the “Median effective dose (dose that results in 50% huRBC loss by day 7 relative to vehicle control)” value [4] of the same molecule?
**A.** 4.7 mg/kg

**Q.** And the TD50 at 7 days [5]?
**A.** 5 mg/kg

**Q.** What about the AUC [6, 8] of the same molecule?
**A.** 22400 ng·h/mL

**Q.** What about the “AUC, liver” value [6, 8] of the same molecule?
**A.** 1404 μg/g liver*hour

**Q.** What about the Cmax [6, 8] of the same molecule?
**A.** 380 ng/mL

**Q.** And the “Cmax, liver” value [6, 8]?
**A.** 17 μg/g liver

**Q.** What about the Kp [6, 8] of the same molecule?
**A.** 62.8

**Q.** What about the Tmax [6, 8] of the same molecule?
**A.** 8 h

**Q.** With “p(GMA-co-SVATQMA) [tri-antennary GalNAc polymeric prodrug]” as the molecule, how does the “Liver AUC drug exposure compared with the copolymer” value ([6]; SC 10 mg/kg dose, mice (fig. S15C)) read?
**A.** equivalent to the copolymer

**Q.** With “p(GalNAc-co-MSEMA-co-SVCTQMA) [lower GalNAc polymeric prodrug design]” as the molecule, how does the “PK properties compared with pSVCTQ” value ([6]; TQ in liver and plasma after SC 10 mg/kg dose, mice (fig. S15B)) read?
**A.** preserved much of the PK properties

**Q.** For p(GalNAc-MA-co-VCTQ-MA) [pVCTQ], which “Liver:plasma AUC ratio” value ([6]; 25 mg/kg, IV, mice) is on record?
**A.** 120

**Q.** What about the “AUC, liver” value ([6]; TQ in liver, 25 mg/kg TQ equivalent, IV, mice, t = 0 to 336 hours) of the same molecule?
**A.** 2725 μg/g liver*hour

**Q.** And the “Cmax, liver” value ([6]; TQ in liver, 25 mg/kg, IV, mice)?
**A.** 48 μg/g liver
